In paper PMC7213079, “Hit Identification of New Potent PqsR Antagonists as Inhibitors of Quorum Sensing in Planktonic and Biofilm Grown Pseudomonas aeruginosa” (Frontiers in Chemistry, 2020):
“Also recorded” adds a separate entry of the source.

Assays:
Type in all cases: cell-based, Pseudomonas aeruginosa
PA14 [1] = experiment: AQ (HHQ, PQS) quantification by LC-MS/MS in planktonic cultures, PA14; settings: 3 x IC50
Description: (§1) Since PqsR controls expression of the pqsABCDE operon encoding the enzymes required for different stages of AQ biosynthesis, quantification of HHQ, and PQS provides a direct measurement for inhibition of the biosynthetic pathway. Compound 40 was evaluated for its effect on AQ biosynthesis at a concentration three times the corresponding IC50 values for PAO1-L and PA14.
(§2) Figure 5 Effect of compound 40 on AQ production: Quantification of AQ concentrations after treatment with the PqsR inhibitor 40 at 3x IC50 value for PAO1-L and PA14 each strain. The graph represents the average of three independent experiments carried out in triplicate (n = 9) for both strains.
(§3) For each test sample, 100µl of sterile filtered supernatant (the same preparation as for pyocyanin) was spiked with 10µl of an internal standard solution (10µM d4-PQS in MeOH), and diluted with water to a total volume of 500µl. […]
(§4) screening of the LC eluent for specific AQ analytes. Where chromatographic peaks for HHQ and PQS were detected, a peak area was determined and analyte peak area/internal standard peak area calculated.
(§5) AQ quantification in biofilm cultures: […]
(§6) For this experiment, the P. aeruginosa PAO1-L strain and M9 minimal medi um were used. […] The supernatant was col lected and the AQ extraction and quantification were performed following the LC MS/MS protocol described above . […]

PAO1-L [2] = experiment: Pyocyanin quantification, PAO1-L; settings: compound at 3 x IC50, 16 h, compared with the control
Excerpt: (§7) Pyocyanin is an important virulence factor for P. aeruginosa infections and in particular respiratory and urinary tract infections. Pyocyanin is a redox-active phenazine the production of which is regulated via PqsR and PqsE (Hall et al., [2016]; Rampioni et al., [2016]; Higgins et al., [2018]). Therefore, pyocyanin production serves as an indirect readout of the activity of the pqs QS system. […] Compound 40 reduced pyocyanin production by over 80% in both strains in agreement with bioreporter assay results.
(§8) Figure 4 Pyocyanin production by Pseudomonas aeruginosa after treatment with pqs inhibitors 8, 14, 23, 34, 25, 26, and 40. Quantification of pyocyanin production after inhibitor treatment at 3 × IC50 for both PAO1-L and PA14. The graph represents the average of three independent experiments carried out in triplicate (n = 9).
(§9) PAO1-L Wild type PAO1, Lausanne subline. B.
(§10) PAO1-L mCTX::PpqsA- PAO1-L with chromosomal mini-CTX::PpqsA-lux (Soukarieh lux insertion; TcR et al., 2018)
(§11) PA14 Wild type UCBPP-PA14 (Rahme et
(§12) PA14 mCTX::PpqsA-lux PA14 with chromosomal mini-CTX::PpqsA-lux (Soukarieh insertion; TcR et al., 2018) […]
(§13) Pyocyanin quantification: […]
(§14) Pyocyanin pigment was extracted into chloroform by mixing 7.5 mL of supernatant with 4.5 mL of chloroform. Pyocyanin w as further extracted into 1.5 mL of 0.2 M HCL which gave a pink/red solution and the absorbance was measured at 520 nm.

PAO1-L biofilms = experiment: Biofilm viability assay (LIVE/DEAD BacLight, CLSM); settings: 6 and 24 h
Description: PAO1-L biofilms were established for 2 days before challenging with these treatments for 6 and 24 h followed by Live/Dead staining.
Figure 7 Bar chart showing PAO1-L biofilm viability quantified after treatment with different conditions for 6 or 24 h.
Mature pre-established P. aeruginosa PAO1-L biofilms were grown to assess the effects of co-
For these assays, PAO1-L biofilms were grown on round glass coverslips (8 mm, #1.5 thickness) under flow conditions (20 rpm) in FAB containing 10
mM glucose medium inoculated with a diluted (OD600nm = 0.01) bacterial suspension from overnight
cultures in LB. Biofilms were cultivated at 30°C for 2 days with medium replacement every day.

PA14 [3] = experiment: Pyocyanin quantification, PA14; settings: PA14, compound at 3 x IC50, 16 h, compared with the control
Excerpt: as §7, §8, §9, §10, §11, §12, §13, §14

PAO1-L [4] = experiment: AQ (HHQ, PQS) quantification by LC-MS/MS in planktonic cultures, PAO1-L; settings: 3 x IC50
Description: as §1, §2, §3, §4, §5, §6

For `Cn1c2ccccc2c2nnc(SCC(=O)Nc3ccc(Oc4ccccn4)cc3)nc21` [Compound 40, 2-((5-Methyl-5H-[1,2,4]triazino[5,6-b]indol-3-yl)thio)-N-(4-(pyridin-2-yloxy)phenyl)acetamide], the “production of HHQ and PQS” value (PA14 [1]) was “substantially reduce”, the “inhibition of pyocyanin production” value (PAO1-L [2]) was “over 80%” and the biofilm viability (PAO1-L biofilms; pre-established PAO1-L biofilms (48 h), 40 at 10 μM) was “growth of the community increased; also recorded: slight increase in viability”. For the same compound, the “biofilm killing in combination with CIP” value (PAO1-L biofilms; pre-established PAO1-L biofilms, 40 10 μM combined with ciprofloxacin 60 μg/mL) was “did not result in an enhanced biofilm killing”, the “inhibition of pyocyanin production” value (PA14 [3]) was “over 80%” and the “production of HHQ and PQS” value (PAO1-L [4]) was “substantially reduce”.
